Values of other authors in patent US6716459B2, “Composition for inhibiting increase of blood sugar level or lowering blood sugar level” (priority 1998, dated 2004).

System: Ehrlich Ascites Tumour Cells
Conditions: in vitro, Chem. Pharm. Bull. 41(12) 2129-2131 (1993)

SMILES: C[C@H]1[C@H](C)CC[C@]2(C(=O)O)CC[C@]3(C)C(=CC[C@@H]4[C@@]5(C)C[C@@H](O)[C@H](O)C(C)(C)[C@@H]5CC[C@]43C)[C@H]12 [corosolic acid]
- activity on the mobility of grape sugar: activates the mobility of grape sugar
